According to the supplement of paper PMC10307832:

Key:
Test in all cases: relative viability (nuclei count vs DMSO), 5 days (fraction); higher = more cells survive
[1] = compound: C1CN(CCN1)C2=CC=C(C=C2)C3=CN4C(=C(C=N4)C5=CC=NC6=CC=CC=C56)N=C3 [DM3189] + NC(=O)Nc1cc(-c2cccc(F)c2)sc1C(=O)N[C@H]1CCCNC1 [AZD7762] (partner 0.2 µM)
In short: (§1)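 For relative viability, nuclei counts in treated wells were divided by those in vehicle wells. Lung cancer cell lines had been pin-tool dosed in 1536-well plates the day after seeding and cultured for 5 days, then fixed and stained in one step (final 0.05% Triton X-100, 1% formaldehyde, 1 ug/ml Hoechst) and imaged at 4×. Doses were one drug alone or a fixed anchor-drug dose plus five library-drug doses (not always all listed) in √10 steps, and values are duplicate-plate medians.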

[2] = compound: C1CN(CCN1)C2=CC=C(C=C2)C3=CN4C(=C(C=N4)C5=CC=NC6=CC=CC=C56)N=C3 [DM3189] + C[C@@H](Oc1cc(-c2cnn(C3CCNCC3)c2)cnc1N)c1c(Cl)ccc(F)c1Cl [Crizotinib] (partner 1 µM)
In short: as §1

[3] = compound: C1CN(CCN1)C2=CC=C(C=C2)C3=CN4C(=C(C=N4)C5=CC=NC6=CC=CC=C56)N=C3 [DM3189] + CC(=O)Nc1cccc(-n2c(=O)n(C3CC3)c(=O)c3c(Nc4ccc(I)cc4F)n(C)c(=O)c(C)c32)c1 [Trametinib] (partner 0.02 µM)
In short: as §1

[4] = compound: C1CN(CCN1)C2=CC=C(C=C2)C3=CN4C(=C(C=N4)C5=CC=NC6=CC=CC=C56)N=C3 [DM3189] + O=C(c1cc(Cc2n[nH]c(=O)c3ccccc23)ccc1F)N1CCN(C(=O)C2CC2)CC1 [Olaparib] (partner 8 µM)
In short: as §1

[5] = compound: C1CN(CCN1)C2=CC=C(C=C2)C3=CN4C(=C(C=N4)C5=CC=NC6=CC=CC=C56)N=C3 [DM3189] + CS(=O)(=O)N1CCN(Cc2cc3nc(-c4cccc5[nH]ncc45)nc(N4CCOCC4)c3s2)CC1 [Pictilisib] (partner 1 µM)
In short: as §1

Cell Line	relative viability ([1]; first compound 0.08 µM)	relative viability ([1]; first compound 0.253 µM)	relative viability ([1]; first compound 0.8 µM)	relative viability ([1]; first compound 2.53 µM)	relative viability ([2]; first compound 0.08 µM)	relative viability ([2]; first compound 0.253 µM)	relative viability ([2]; first compound 0.8 µM)	relative viability ([2]; first compound 2.53 µM)	relative viability ([3]; first compound 0.08 µM)	relative viability ([3]; first compound 0.253 µM)	relative viability ([3]; first compound 0.8 µM)	relative viability ([3]; first compound 2.53 µM)	relative viability ([4]; first compound 0.08 µM)	relative viability ([4]; first compound 0.253 µM)	relative viability ([4]; first compound 0.8 µM)	relative viability ([4]; first compound 2.53 µM)	relative viability ([5]; first compound 0.08 µM)	relative viability ([5]; first compound 0.253 µM)	relative viability ([5]; first compound 0.8 µM)	relative viability ([5]; first compound 2.53 µM)
EMC-BAC-2	1.26	1.03	0.976	1.05	0.8	0.71	0.686	0.773	0.925	0.877	0.891	1.04	0.5	0.455	0.339	0.492	0.587	0.538	0.507	0.54
NCI-H727	0.613	0.602	0.629	0.526	0.889	0.821		0.737	0.416	0.433	0.445	0.47	0.696	0.69	0.649	0.764	0.593	0.347		0.227
LU99A	0.379	0.362		0.283	0.573	0.527		0.509	0.661	0.533		0.634	0.296	0.274		0.264	0.32	0.263		0.316
LK-2	0.252	0.153	0.225	0.219	0.234	0.241	0.22	0.214	0.586	0.511	0.638	0.497	0.626	0.613	0.388	0.489	0.378	0.278	0.262	0.306
NCI-H322M	0.662	0.644	0.662	0.519	1.06	0.848	0.872	0.924	0.532	0.518	0.517	0.511	0.938	0.793	0.743	0.768	0.565	0.526	0.462	0.447
NCI-H2405	0.727	0.665	0.645	0.704	0.867	0.855	0.775	0.855	0.669	0.615	0.614	0.579	0.919	0.858	0.781	0.793	0.467	0.378	0.422	0.408
NCI-H1563					0.944	0.865	0.833	0.899									0.635	0.622	0.625	0.616
HCC-827	0.207	0.194	0.205	0.195	0.896	0.89	0.866	0.896	0.492	0.535	0.502	0.54	0.665	0.573	0.511	0.698	1.19	1.06	1.02	1.15
NCI-H1666	1.11	0.812	0.878	0.941	1.07	1.01	0.965	0.8	1.03	0.951	0.863		0.714	0.682	0.691		0.439	0.595	0.508	0.437
NCI-H358	0.5	0.502	0.517	0.444	0.516	0.56	0.504	0.509	0.133	0.111	0.129	0.129	0.7	0.539	0.56	0.395	0.374	0.294	0.327	0.322
201T	0.717	0.639	0.611	0.537	1.06	1.03	1	1.07	0.729	0.743	0.728	0.734	0.822	0.882	0.859	0.765	0.766	0.73	0.515	0.702
RERF-LC-KJ	1.51	1.11	1	0.964	0.887	0.812	0.863	0.885	1.03	0.95	0.927	0.986	0.942	0.889	0.823	0.833	0.585	0.694	0.602	0.562
NCI-H3122	0.978	0.964	0.912	0.816	0.237	0.204	0.261	0.259	0.19	0.205	0.181	0.217	0.698	0.606	0.545	0.73	0.568	0.466	0.601	0.502
LXF-289	1.17	1.2	1.1	1.14	0.796	0.793	0.781	0.947	0.74	0.686	0.692	0.694	1.08	1.06	1.06	1.11	0.834	0.773	0.775	0.935
EKVX	0.809		0.623	0.638	0.952	0.918	0.925	0.896	0.325		0.328	0.338	1.06		0.517	0.814	0.483	0.429	0.413	0.446
A-427	0.684	0.701	0.677	0.723	0.904	0.854	0.811	0.95	0.865	0.736	0.638	0.819	0.832	0.753	0.512	0.807	0.866	0.677	0.617	0.865
IA-LM					0.857		1.01	1.11					0.999	1.02	0.821	1.2	0.355	0.353	0.426	0.566
ChaGo-K-1	0.919	0.857	0.605	0.83	1.03	1.1	0.97	1.09	0.937	0.876	0.919	0.936	0.48	0.393	0.369	0.439	0.756	0.67	0.808	0.584
NCI-H2342	0.44	0.533	0.54	0.478					0.805	0.843	0.844	0.74	0.417	0.473	0.477	0.468				

Cell Line	relative viability ([1]; first compound 0.08 µM)	relative viability ([1]; first compound 0.253 µM)	relative viability ([1]; first compound 0.8 µM)	relative viability ([1]; first compound 2.53 µM)	relative viability ([2]; first compound 0.08 µM)	relative viability ([2]; first compound 0.253 µM)	relative viability ([2]; first compound 0.8 µM)	relative viability ([2]; first compound 2.53 µM)	relative viability ([3]; first compound 0.08 µM)	relative viability ([3]; first compound 0.253 µM)	relative viability ([3]; first compound 0.8 µM)	relative viability ([3]; first compound 2.53 µM)	relative viability ([4]; first compound 0.08 µM)	relative viability ([4]; first compound 0.253 µM)	relative viability ([4]; first compound 0.8 µM)	relative viability ([4]; first compound 2.53 µM)	relative viability ([5]; first compound 0.08 µM)	relative viability ([5]; first compound 0.253 µM)	relative viability ([5]; first compound 0.8 µM)	relative viability ([5]; first compound 2.53 µM)
SK-MES-1					1.05	0.885	0.69	0.918	0.54	0.485	0.481	0.548	0.679	0.546	0.594	0.348	0.305	0.3	0.289	0.319
NCI-H2009					1.07	1.03	0.933	0.922	0.276	0.268	0.263	0.23	0.894	0.645	0.638	0.689	1	0.725	0.572	0.75
NCI-H520					0.752	0.748	0.485	0.303	0.672	0.413	0.43	0.321	0.348	0.339	0.293	0.233	0.28	0.234	0.219	0.19
SK-LU-1					0.714	0.868	0.676	0.522	0.441	0.402	0.429	0.378	0.449	0.398	0.35	0.372	0.531	0.4	0.393	0.393
ABC-1	0.914	0.679	0.742	1.06	1.07	0.991	0.991	0.668					1.04	0.594	0.676	0.718	0.838	0.636	0.757	0.631
COR-L 105					0.864	0.685	0.603	0.538	0.467	0.488	0.471	0.504	0.855	0.772	0.545	0.812	0.52	0.398	0.361	0.275
NCI-H2023					0.68	0.729	0.631	0.502	0.469	0.534	0.532	0.374	0.486	0.432	0.515	0.333	0.26	0.24	0.201	0.235
NCI-H1703	0.122	0.191	0.119	0.135	0.763	0.747	0.524	0.548					0.397	0.466	0.429	0.446	0.28	0.205	0.257	0.257
NCI-H1650					0.896	0.851	1.15	0.717	0.749	0.608	0.677	0.738	0.801	0.712	0.738	0.838	0.773	0.582	0.526	0.477
NCI-H1395	0.385	0.396		0.39					0.902	1.03		1.01	0.421	0.463		0.39	0.625	0.618	0.459	0.562
NCI-H1793	0.524	0.519	0.273	0.347					0.507	0.603	0.532	0.742	0.998	0.943	0.702	1.15	0.311	0.306	0.281	0.31
NCI-H522	0.949	0.775	0.648	0.704					0.777	0.777	0.656	0.747	0.663	0.651	0.607	0.709				
SW 1573					0.87	0.801	0.717	0.767	0.677	0.6	0.53	0.539	0.543	0.449	0.441	0.106	0.541	0.491	0.466	0.399
UMC-11					0.499	0.477	0.538	0.414	0.745	0.706	0.59	0.62	0.395	0.37	0.35	0.458	0.836	0.795	0.764	0.702
NCI-H2228					0.695	0.363	0.385	0.14	0.476	0.494	0.581	0.236	0.88	0.669	0.492	0.51	0.362	0.33	0.329	0.283
SW 900	0.574		0.515	0.645					0.818		0.832	0.941	0.801		0.886	0.897				
NCI-H661					1	1.01	0.949	1.08	0.7	0.581	0.642	0.623	0.845	0.75	0.708	0.71	0.44	0.453	0.509	0.389
COR-L23					0.633	0.455	0.679	0.583	0.707	0.507	0.529	0.549	0.439	0.264	0.245	0.303	0.71	0.668	0.485	0.627
